The assay concerns Human pancreatic cancer cell line Panc02,03. The experiment in a line: Proliferation action on Panc02,03 cell stimulated by each growth factor (ATP, CellTiter-Glo). Type of assay: cell-based. The conditions noted are these: for efficacy in Panc02,03 cell proliferation test using the medium composition by the production method of the present invention (in words): compared to a monolayer culture method and negative control group. For orientation: In ATP-based viability assays light output follows the ATP content of the culture.

Setting [1] is: Panc02,03, 3 ng/mL, medium composition of Example 13, on day 6 (head).
[2] abbreviates: Panc02,03, 3 ng/mL, monolayer culture group, culture conditions on day 6 (head).
The mark [3] stands for this setting: Panc02,03, 3 ng/mL, negative control group (medium free of deacylated gellan gum, low adhesion plate), on day 6 (head).
[4] abbreviates: Panc02,03, 30 ng/mL, medium composition of Example 13, on day 6 (head).
The mark [5] stands for this setting: Panc02,03, 30 ng/mL, monolayer culture group, culture conditions on day 6 (head).
Where [6] appears, read: Panc02,03, 30 ng/mL, negative control group (medium free of deacylated gellan gum, low adhesion plate), on day 6 (head).
Setting [7] is: Panc02,03, 10 ng/mL, medium composition of Example 13, on day 6 (head).
[8] abbreviates: Panc02,03, 10 ng/mL, monolayer culture group, culture conditions on day 6 (head).
[9] abbreviates: Panc02,03, 10 ng/mL, negative control group (medium free of deacylated gellan gum, low adhesion plate), on day 6 (head).
The mark [10] stands for this setting: Panc02,03, 100 ng/mL, medium composition of Example 13, on day 6 (head).
Setting [11] is: Panc02,03, 100 ng/mL, monolayer culture group, culture conditions on day 6 (head).
Setting [12] is: Panc02,03, 100 ng/mL, negative control group (medium free of deacylated gellan gum, low adhesion plate), on day 6 (head).

For the molecule “human EGF: growth factor, manufactured by PEPROTECH”, the “efficacy in Panc02,03 cell proliferation test using the medium composition by the production method of the present invention (in words)” value is reported as “strongly shown”. Besides, under setting [1], the “% control of RLU value (ATP measurement, luminescence intensity)” value (“% control of RLU value” for short) came out at 108 % Control. Also, under setting [2], the “% control of RLU value” value worked out at 105 % Control. Further, the “% control of RLU value” value under setting [3] is 117 % Control. Besides, under setting [4], the “% control of RLU value” value was 187 % Control. Moreover, the “% control of RLU value” value under setting [5] amounted to 97 % Control. The “% control of RLU value” value under setting [6] amounted to 136 % Control.

Take “human FGF-2: growth factor, manufactured by PEPROTECH”: the “% control of RLU value” value is reported as 107 % Control under setting [7]; 108 % Control under setting [8]; 118 % Control under setting [9]; 100 % Control under setting [10]; 102 % Control under setting [11]; 99 % Control under setting [12].

On to “human TGF-β1: growth factor, manufactured by PEPROTECH”, for which the “% control of RLU value” value reads like this: under setting [1], 102 % Control; under setting [2], 95 % Control; under setting [3], 114 % Control; under setting [4], 106 % Control; under setting [5], 99 % Control; under setting [6], 122 % Control.

B1: human PDGF-BB: growth factor, manufactured by PEPROTECH (protein, UniProt P01127 82-190, looked up)
Platelet-derived growth …: SLGSLTIAEPAMIAECKTRTEVFEISRRLIDRTNANFLVWPPCVEVQRCSGCCNNRNVQCRPTQVQLRPVQVRKIEIVRKKPIFKKATVTLEDHLACKCETVAAARPVT
modifications: homodimer
notes: growth factor, manufactured by PEPROTECH
On to B1, for which the “% control of RLU value” value is, setting by setting: under setting [7], 101 % Control; under setting [8], 98 % Control; under setting [9], 128 % Control.

B2: human HB-EGF: growth factor, manufactured by PEPROTECH (protein, UniProt Q99075 63-148, looked up)
Heparin-binding EGF-like …: DLQEADLDLLRVTLSSKPQALATPNKEEHGKRKKKGKGLGKKRDPCLRKYKDFCIHGECKYVKELRAPSCICHPGYHGERCHGLSL
Consider B2, for which the “efficacy in Panc02,03 cell proliferation test using the medium composition by the production method of the present invention (in words)” value is listed as “strongly shown”. The “% control of RLU value” value under setting [4] is reported as 118 % Control. The “% control of RLU value” value under setting [5] came to 99 % Control. The “% control of RLU value” value under setting [6] was found to be 132 % Control. The “% control of RLU value” value under setting [10] is given as 202 % Control. Moreover, the “% control of RLU value” value under setting [11] is 98 % Control. The “% control of RLU value” value under setting [12] stood at 134 % Control.

Values taken from US11345762B2, “Method for preparing liquid medium composition, and preparation device and kit therefor” (NISSAN CHEMICAL INDUSTRIES, LTD., priority 2015, dated 2022).
